The structures appear in SMILES notation. Counter-ions that a name gives are not always drawn.

T1 sequence (Q13946 whole entry, species assumed): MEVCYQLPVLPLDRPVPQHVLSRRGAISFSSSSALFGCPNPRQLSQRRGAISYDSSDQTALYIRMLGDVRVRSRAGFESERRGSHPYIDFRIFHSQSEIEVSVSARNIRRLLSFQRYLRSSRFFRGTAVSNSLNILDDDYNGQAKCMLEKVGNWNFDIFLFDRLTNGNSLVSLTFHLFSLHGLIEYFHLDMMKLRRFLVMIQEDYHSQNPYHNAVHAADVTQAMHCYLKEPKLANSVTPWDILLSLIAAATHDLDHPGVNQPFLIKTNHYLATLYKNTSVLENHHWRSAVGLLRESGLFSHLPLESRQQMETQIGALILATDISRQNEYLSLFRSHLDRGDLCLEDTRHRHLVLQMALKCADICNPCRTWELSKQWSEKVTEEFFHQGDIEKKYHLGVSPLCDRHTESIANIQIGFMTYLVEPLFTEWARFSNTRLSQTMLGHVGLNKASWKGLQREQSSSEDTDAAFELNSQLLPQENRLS

This experiment addresses T1, PDE7A1 (Homo sapiens, UniProt Q13946).
T1 construct: made in house; host or cells: Sf21 insect cells (baculovirus expression system)
Nature of the experiment: In vitro inhibition of phosphodiesterase 7 (enzymatic activity, cAMP substrate 50 nM). It counts as biochemical. The settings on record: PDE7A1 expressed in Sf 21 insect cells; cAMP 50 nM; reaction 10 minutes; read-out: IC50 (PDE7). The method, then:
The capacity of the compounds of the invention to inhibit cyclic nucleotide phosphodiesterases was evaluated by measuring their IC50 (concentration necessary to inhibit the enzymatic activity by 50%).
PDE3A3, PDE4D3, and PDE7A1 were cloned and expressed in insect cells Sf 21 using the baculovirus expression system. The source of PDE103 and of PDE503 were human cell lines (respectively TPH1 human monocytes and MCF7 human breast adenocarcinoma). The various types of phosphodiesterases were obtained partially purified on an anion exchange column (Mono Q) according to a method adapted from Lavan B. E., Lakey T., Houslay M.D., Biochemical Pharmacology, 1989;38(22):4123-4136.
Measurement of the enzymatic activity for the various types of PDE was then made according to a method adapted from Thompson W. J. et al., Advances in Cyclic Nucleotide Research, ed. G. Brooker et al. New York: Raven Press, 1979;10:69-92.
The substrate used was cGMP for PDE1 and PDE5 and cAMP for PDE3, PDE4, and PDE7. The substrate concentration was 0.2 μM for PDE1, PDE3, and PDE5, 0.25 μM for PDE4, and 50 nM for PDE7.
The enzymatic reaction was stopped after 1 hour for PDE1, PDE3, and PDE5 and 10 minutes for PDE4 and PDE7.
Take `Cn1nc(-c2ccc(-c3ccccn3)s2)s/c1=N\C1CCCCC1` [I18,2, Cyclohexyl-[3-methyl-5-(5-pyridin-2-yl-thiophen-2-yl)-3H-[1,3,4]thiadiazol-2-ylidene]-amine]: the IC50 (in general, the concentration at which inhibition is half-maximal) was 320 nM.

As to `COc1c(O)cc(-c2nn(C)/c(=N/C3CCCCC3)s2)cc1O` [I18,3, 5-(5-Cyclohexylimino-4-methyl-4,5-dihydro[1,3,4]thiadiazol-2yl)-2-methoxy-benzene-1,3-diol; compound with trifluoro-methanesulfonic acid], the IC50 is 61 nM.

For the compound `COc1cc(-c2nn(C)/c(=N/C3CCCCC3)s2)cc(O)c1OC` [I18,4, 5-(5-Cyclohexylimino-4-methyl-4,5-dihydro[1,3,4]thiadiazol-2-yl)-2,3-dimethoxy-phenol;compound with trifluoro-methanesulfonic Acid], the IC50 worked out at 92 nM.

As to `Cn1nc(-c2ccc(Cl)cc2)s/c1=N\C1CCCCC1` [I18,5, [5-(4-Chloro-phenyl)-3-methyl-3H-[1,3,4]thiadiazol-2-ylidene]-cyclohexyl-amine], the IC50 worked out at 1200 nM.

As to `Cn1nc(-c2cccc(C(=O)O)c2)s/c1=N\C1CCCCC1` [I21,1, 3-(5-Cyclohexylimino-4-methyl-4,5-dihydro-[1,3,4]thiadiazol-2-yl)-benzoic acid], the IC50 was 870 nM.

For the compound `Cn1nc(-c2ccc(C(=O)O)cc2)s/c1=N\C1CCCCC1` [I37,1, 4-(5-Cyclohexylimino-4-methyl-4,5-dihydro-[1,3,4]thiadiazol-2-yl)-benzoic acid], the concentration for half-maximal inhibition (IC50) was found to be 550 nM.

As for `Cn1nc(-c2ccc(C(=O)NO)cc2)s/c1=N\C1CCCCC1` [I37,2, 4-(5-Cyclohexylimino-4-methyl-4,5-dihydro-[1,3,4]thiadiazol-2-yl)-N-hydroxy-benzamide], the IC50 amounted to 1200 nM.

As to `Cn1nc(-c2ccc(C(N)=O)cc2)s/c1=N\C1CCCCC1` [I37,3, 4-(5-Cyclohexylimino-4-methyl-4,5-dihydro-[1,3,4]thiadiazol-2-yl)-benzamide], the IC50 was found to be 62 nM.

Take `Cn1nc(-c2ccc(C(=O)Nc3nn[nH]n3)cc2)s/c1=N\C1CCCCC1` [I37,4, 4-(5-Cyclohexylimino-4-methyl-4,5-dihydro-[1,3,4]thiadiazol-2-yl)-N-(2H-tetrazol-5-yl)-benzamide hydrochloride salt]: the IC50 was found to be 150 nM.

As to `Cn1nc(-c2ccc(C(=O)Nc3cccc4cccnc34)cc2)s/c1=N\C1CCCCC1` [I37,5, 4-(5-Cyclohexylimino-4-methyl-4,5-dihydro[1,3,4]thiadiazol-2-yl)-N-quinolin-8-yl-benzamide], the IC50 is 93 nM.

In the case of `COc1ccc(NC(=O)c2ccc(-c3nn(C)/c(=N/C4CCCCC4)s3)cc2)c(OC)n1` [I37,6, 4-(5-Cyclohexylimino-4-methyl-4,5-dihydro[1,3,4]thiadiazol-2-yl)-N-(2,6-dimethoxy-pyridin-3-yl)-benzamide], the IC50 amounted to 97 nM.

On to `CC(C)NC(=O)c1ccc(-c2nn(C)/c(=N/C3CCCCC3)s2)cc1` [I37,7, 4-(5-Cyclohexylimino-4-methyl-4,5-dihydro[1,3,4]thiadiazol-2-yl)-N-isopropyl-benzamide], for which the IC50 turned out to be 86 nM.

Consider `CCNC(=O)c1ccc(-c2nn(C)/c(=N/C3CCCCC3)s2)cc1` [I37,8, 4-(5-Cyclohexylimino-4-methyl-4,5-dihydro[1,3,4]thiadiazol-2-yl)-N-ethyl-benzamide], for which the IC50 stood at 64 nM.

As to `CN(C)CCNC(=O)c1ccc(-c2nn(C)/c(=N/C3CCCCC3)s2)cc1` [I37,9, 4-(5-Cyclohexylimino-4-methyl-4,5-dihydro[1,3,4]thiadiazol-2-yl)-N-(2-dimethylamino-ethyl)-benzamide], the IC50 turned out to be 75 nM.

Turning to `Cn1nc(-c2ccc(C(=O)NCc3ccncc3)cc2)s/c1=N\C1CCCCC1` [I37,10, 4-(5-Cyclohexylimino-4-methyl-4,5-dihydro[1,3,4]thiadiazol-2-yl)-N-pyridin-4-ylmethyl-benzamide], the IC50 amounted to 44 nM.

Take `CN1CCC(N(C)C(=O)c2ccc(-c3nn(C)/c(=N/C4CCCCC4)s3)cc2)CC1` [I37,11, 4-(5-Cyclohexylimino-4-methyl-4,5-dihydro-[1,3,4]thiadiazol-2-yl)-N-methyl-N-(1-methyl-piperidin-4-yl)-benzamide]: the IC50 stood at 72 nM.

For the origin of these results see patent US20030045557A1, “Thiadiazoles and oxadiazoles and their use as phosphodiesterase-7 inhibitors” (priority 2000, published 2003).
